Measurements published in ChEMBL document CHEMBL3045207, “1-Phenyl-3-toluyl-4-[ortho-1'-(N-ethyl-2'-methylpropylamine)]phenylpyrazole, synthesis and evaluation of the in vitro antifungal activity against Botrytis cinerea and Fusarium oxysporum” (Farmaco, 2004).
In brackets after ≈: the same amount, converted by molar mass. Activity calls are given as the source filed them. No cut-off for these calls is given here.

How the values were obtained:
Botrytis cinerea [1] = experiment: Inhibition of mycelial growth of Botryotinia fuckeliana after […]; type: functional, organism-based
Botrytis cinerea [2] = experiment: Inhibition of conidial germination of Botryotinia fuckeliana after 8 days by microscopy; type: functional, organism-based; conditions: 192 h
Botrytis cinerea [3] = experiment: Antifungal activity against Botryotinia fuckeliana assessed as growth inhibition at 1 mg/ml after 72 hr by paper disk diffusion method; type: functional; conditions: read-out: DIZ
Fusarium oxysporum [4] = experiment: Inhibition of conidial germination of Fusarium oxysporum at 10 ug/ml after 48 hr by microscopy; type: functional
Fusarium oxysporum [5] = experiment: Inhibition of conidial germination of Fusarium oxysporum at 100 ug/ml after 8 days by microscopy; type: functional, organism-based
Fusarium oxysporum [6] = experiment: Inhibition of conidial germination of Fusarium oxysporum after 8 days by microscopy; type: functional, organism-based; conditions: 192 h
Fusarium oxysporum [7] = experiment: Antifungal activity against Fusarium oxysporum after 72 hr by 96-well microbioassay; type: functional
Botrytis cinerea [8] = experiment: Inhibition of conidial germination of Botryotinia fuckeliana at 50 ug/ml after 8 days by microscopy; type: functional, organism-based
Botrytis cinerea [9] = experiment: Inhibition of conidial germination of Botryotinia fuckeliana at 10 ug/ml after 48 hr by microscopy; type: functional
Botrytis cinerea [10] = experiment: Antifungal activity against Botryotinia fuckeliana after 72 hr by 96-well microbioassay; type: functional
Fusarium oxysporum [11] = experiment: Antifungal activity against Fusarium oxysporum assessed as growth inhibition at 1 mg/ml after 72 hr by paper disk diffusion method; type: functional; conditions: read-out: DIZ
Fusarium oxysporum [12] = experiment: Inhibition of mycelial growth of Fusarium oxysporum after […]; type: functional, organism-based

## CCNC(c1ccccc1-c1cn(-c2ccccc2)nc1-c1ccc(C)cc1)C(C)C (stereo unspecified)
Botrytis cinerea [1]
  IC50: 6.8 µg/mL (≈ 16.6 µM)
Botrytis cinerea [2]
  IC50: 7.3 µg/mL (≈ 17.8 µM)
Botrytis cinerea [3]
  zone of inhibition at 1000 µg/mL: 26 mm
Fusarium oxysporum [4]
  inhibition at 10 µg/mL: 20%
Fusarium oxysporum [5]
  inhibition: Active
Fusarium oxysporum [6]
  IC50: 40.8 µg/mL (≈ 99.6 µM)
Fusarium oxysporum [7]
  MIC: 36 µg/mL (≈ 87.9 µM)
Botrytis cinerea [8]
  inhibition: Active
Botrytis cinerea [9]
  inhibition at 10 µg/mL: 85%
Botrytis cinerea [10]
  MIC: 25 µg/mL (≈ 61 µM)
Fusarium oxysporum [11]
  zone of inhibition at 1000 µg/mL: 23.6 mm
Fusarium oxysporum [12]
  IC50: 17.8 µg/mL (≈ 43.4 µM)

## C[C@@H]1[C@H](O)[C@@H](C)/C=C/C=C/C=C/C=C/C=C/C=C/C=C/[C@H](O[C@@H]2O[C@H](C)[C@@H](O)[C@H](N)[C@@H]2O)C[C@@H]2O[C@](O)(C[C@@H](O)C[C@@H](O)[C@H](O)CC[C@@H](O)C[C@@H](O)CC(=O)O[C@H]1C)C[C@H](O)[C@H]2C(=O)O [AMPHOTERICIN B]
Botrytis cinerea [3]
  zone of inhibition at 1000 µg/mL: 30 mm
Fusarium oxysporum [7]
  MIC: 15 µg/mL (≈ 16.2 µM)
Botrytis cinerea [10]
  MIC: 12 µg/mL (≈ 13 µM)
Fusarium oxysporum [11]
  zone of inhibition at 1000 µg/mL: 26 mm
